Test results from ChEMBL document CHEMBL3301562, “MMV Box screening against Plasmodium falciparum protein kinases and aminoacyl tRNA synthetases”.

Assays:
Assay type in all cases: functional
[1] = target: T1, Cdk-related protein kinase 6 (Plasmodium falciparum, UniProt O77239); assay: Final concentrations were 1.5 uM ATP, 5 mM MnCl2, and 15 ug/ml PK6 in a buffer of 100 mM Tris-HCl (pH 7.5). 50 ug/mL MBP was provided as the substrate; 10 uM staurosporine was used as a control inhibitor. Incubation time was 3 hours and 40 minutes.The catalytic activity of each kinase was considered proportional to ATP consumed, as determined from measurements of residual [ATP] with the luciferase-based reagent Kinase-Glo (Promega) following incubation. Luminescence (proportional to residual [ATP]) was measured on the plate readers FLx800 (BioTek Instruments, Winooski, VT, USA) and MicroBeta2.
T1 sequence (O77239 whole entry): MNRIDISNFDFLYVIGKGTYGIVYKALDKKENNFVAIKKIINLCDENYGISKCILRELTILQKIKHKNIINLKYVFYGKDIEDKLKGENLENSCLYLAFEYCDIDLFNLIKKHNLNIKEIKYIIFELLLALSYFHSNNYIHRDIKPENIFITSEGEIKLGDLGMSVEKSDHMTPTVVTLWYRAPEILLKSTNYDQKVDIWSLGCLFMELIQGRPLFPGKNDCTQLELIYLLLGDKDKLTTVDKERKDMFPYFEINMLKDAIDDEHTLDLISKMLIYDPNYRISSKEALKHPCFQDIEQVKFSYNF

[2] = target: T2, Putative uncharacterized protein pk7 (Plasmodium falciparum, UniProt O96214); assay: Final concentrations were 1 uM ATP, 2 mM DTT, 20 mM MgCl2, 2 mM MnCl2, 0.01% BSA, and 6 ug/ml PK7, in a buffer of 20 mM Tris-HCl (pH 7.5). The enzyme itself was the only substrate present (since autophosphorylation occurs); 100 uM 1NA-PP1 was used as a control inhibitor. Incubation time was 3 hours.
T2 sequence (O96214 whole entry): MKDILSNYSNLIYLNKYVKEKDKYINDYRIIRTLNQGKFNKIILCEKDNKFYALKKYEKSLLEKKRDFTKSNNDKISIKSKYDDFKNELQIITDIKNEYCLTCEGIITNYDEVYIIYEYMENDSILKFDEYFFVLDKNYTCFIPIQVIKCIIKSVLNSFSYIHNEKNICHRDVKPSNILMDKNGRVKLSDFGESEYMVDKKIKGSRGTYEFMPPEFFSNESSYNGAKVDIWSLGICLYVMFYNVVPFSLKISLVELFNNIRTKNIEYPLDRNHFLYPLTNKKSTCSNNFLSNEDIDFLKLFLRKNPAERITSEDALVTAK

[3] = target: T3, Mitogen-activated protein kinase (Plasmodium falciparum, UniProt Q25917); assay: Final concentrations were 1 uM ATP, 0.5 mM DTT, 1 mM MgCl2, 0.5 mg/mL BSA, and 10 ug/ml MAP2 in a buffer of 50 mM HEPES (pH 7.0). 0.5 mg/mL histone III-S served as the substrate (13); 100 uM AMP-PNP, an ATP analog, was used as a control inhibitor. Incubation time was 4 hours.
T3 sequence (Q25917 whole entry): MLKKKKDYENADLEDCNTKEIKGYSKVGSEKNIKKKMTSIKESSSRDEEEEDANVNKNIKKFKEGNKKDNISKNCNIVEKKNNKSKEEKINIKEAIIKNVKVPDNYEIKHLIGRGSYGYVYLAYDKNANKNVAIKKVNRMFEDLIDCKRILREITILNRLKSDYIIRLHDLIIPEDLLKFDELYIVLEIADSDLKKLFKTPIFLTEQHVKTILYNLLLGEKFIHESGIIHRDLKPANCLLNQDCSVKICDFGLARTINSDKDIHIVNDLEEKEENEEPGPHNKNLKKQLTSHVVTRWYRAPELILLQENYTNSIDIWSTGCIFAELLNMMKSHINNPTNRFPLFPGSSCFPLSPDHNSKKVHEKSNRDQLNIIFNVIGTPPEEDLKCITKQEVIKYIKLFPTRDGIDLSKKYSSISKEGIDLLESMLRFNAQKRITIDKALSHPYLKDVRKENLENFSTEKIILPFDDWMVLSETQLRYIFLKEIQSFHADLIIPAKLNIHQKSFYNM

[4] = target: Calcium-dependent protein kinase 1 (Plasmodium falciparum, UniProt P62344); assay: MMV: CDPK1 Protein kinase inhibition assay using recombinant PfCDPK1, syntide 2 peptide substrate, ATP and KinaseGlo to measure % inhibition at 1 uM MMV box compound.
[5] = target: T4, Calcium-dependent protein kinase 4 (Plasmodium falciparum (isolate 3D7), UniProt Q8IBS5); assay: MMV: CDPK4 Protein kinase inhibition assay using recombinant PfCDPK4, syntide2 peptide substrate, ATP and KinaseGlo to measure % inhibition at 1 uM MMV box compound.
T4 sequence (Q8IBS5 whole entry): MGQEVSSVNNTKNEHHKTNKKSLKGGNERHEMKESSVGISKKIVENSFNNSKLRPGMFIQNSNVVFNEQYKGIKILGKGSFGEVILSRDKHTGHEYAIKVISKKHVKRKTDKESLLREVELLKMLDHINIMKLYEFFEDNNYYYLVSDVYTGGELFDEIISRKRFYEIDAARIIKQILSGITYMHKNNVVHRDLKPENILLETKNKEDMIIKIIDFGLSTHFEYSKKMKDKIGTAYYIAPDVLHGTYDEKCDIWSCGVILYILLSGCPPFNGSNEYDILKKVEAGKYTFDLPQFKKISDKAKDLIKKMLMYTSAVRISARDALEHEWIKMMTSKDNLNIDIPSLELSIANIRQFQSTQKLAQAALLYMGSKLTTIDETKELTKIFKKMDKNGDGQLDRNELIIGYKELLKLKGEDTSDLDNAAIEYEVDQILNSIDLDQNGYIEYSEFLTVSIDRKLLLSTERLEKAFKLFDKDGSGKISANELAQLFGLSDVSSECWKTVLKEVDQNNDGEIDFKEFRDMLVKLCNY

Proline--tRNA ligase = target: T5, Proline--tRNA ligase (Plasmodium falciparum (isolate 3D7), UniProt Q8I5R7); assay: MMV: ProRS recombinant Plasmodium falciparum Prolyl-tRNA-synthetase, assay with yeast tRNA, ATP, and proline and 3 uM MMV malaria box compound, assay read out with kinase glo as % inhibition.
T5 sequence (Q8I5R7 whole entry): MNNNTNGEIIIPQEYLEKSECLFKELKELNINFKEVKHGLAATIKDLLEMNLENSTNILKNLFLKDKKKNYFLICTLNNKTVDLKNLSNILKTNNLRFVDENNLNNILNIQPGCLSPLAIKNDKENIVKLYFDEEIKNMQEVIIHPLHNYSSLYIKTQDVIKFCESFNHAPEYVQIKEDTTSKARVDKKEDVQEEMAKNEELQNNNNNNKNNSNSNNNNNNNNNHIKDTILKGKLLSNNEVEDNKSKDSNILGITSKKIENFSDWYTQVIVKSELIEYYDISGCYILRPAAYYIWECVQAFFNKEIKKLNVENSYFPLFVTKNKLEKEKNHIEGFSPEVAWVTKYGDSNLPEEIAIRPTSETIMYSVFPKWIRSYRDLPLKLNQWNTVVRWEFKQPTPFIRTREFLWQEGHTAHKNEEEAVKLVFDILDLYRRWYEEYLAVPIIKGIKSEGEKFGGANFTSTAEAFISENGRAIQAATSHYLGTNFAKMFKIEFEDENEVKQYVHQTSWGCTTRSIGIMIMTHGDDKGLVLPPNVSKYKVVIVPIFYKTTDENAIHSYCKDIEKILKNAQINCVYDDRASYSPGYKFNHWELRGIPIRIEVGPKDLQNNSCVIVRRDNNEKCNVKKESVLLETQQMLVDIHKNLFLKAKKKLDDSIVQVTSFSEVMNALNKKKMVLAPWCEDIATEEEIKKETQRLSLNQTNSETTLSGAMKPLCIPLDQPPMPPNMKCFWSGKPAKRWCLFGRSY

Lysine--tRNA ligase = Lysine--tRNA ligase (Plasmodium falciparum (isolate 3D7), UniProt Q8IDJ8); assay: MMV: KRS recombinant Plasmodium falciparum Lysyl-tRNA-synthetase, assay with yeast tRNA, ATP, and lysine and 3 uM MMV malaria box compound, assay read out with kinase glo as % inhibition.
Sequence of Lysine--tRNA ligase (Q8IDJ8 whole entry): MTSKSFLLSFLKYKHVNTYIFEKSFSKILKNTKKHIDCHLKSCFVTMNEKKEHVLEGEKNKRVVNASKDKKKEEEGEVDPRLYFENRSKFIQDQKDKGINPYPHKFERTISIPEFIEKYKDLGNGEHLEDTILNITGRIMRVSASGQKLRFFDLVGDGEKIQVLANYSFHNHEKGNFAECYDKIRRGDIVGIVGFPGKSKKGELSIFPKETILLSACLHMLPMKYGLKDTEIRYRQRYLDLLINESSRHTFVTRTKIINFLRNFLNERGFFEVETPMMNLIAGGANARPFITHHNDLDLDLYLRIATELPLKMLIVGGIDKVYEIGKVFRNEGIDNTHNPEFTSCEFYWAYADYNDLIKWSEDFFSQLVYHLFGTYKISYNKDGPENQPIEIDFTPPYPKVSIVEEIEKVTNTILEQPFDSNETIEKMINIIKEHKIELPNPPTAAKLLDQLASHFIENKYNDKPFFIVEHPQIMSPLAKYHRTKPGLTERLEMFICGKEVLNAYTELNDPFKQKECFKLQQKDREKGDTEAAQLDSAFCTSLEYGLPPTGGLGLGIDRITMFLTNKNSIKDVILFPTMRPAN

Sequence of Calcium-dependent protein kinase 1 (P62344 whole entry): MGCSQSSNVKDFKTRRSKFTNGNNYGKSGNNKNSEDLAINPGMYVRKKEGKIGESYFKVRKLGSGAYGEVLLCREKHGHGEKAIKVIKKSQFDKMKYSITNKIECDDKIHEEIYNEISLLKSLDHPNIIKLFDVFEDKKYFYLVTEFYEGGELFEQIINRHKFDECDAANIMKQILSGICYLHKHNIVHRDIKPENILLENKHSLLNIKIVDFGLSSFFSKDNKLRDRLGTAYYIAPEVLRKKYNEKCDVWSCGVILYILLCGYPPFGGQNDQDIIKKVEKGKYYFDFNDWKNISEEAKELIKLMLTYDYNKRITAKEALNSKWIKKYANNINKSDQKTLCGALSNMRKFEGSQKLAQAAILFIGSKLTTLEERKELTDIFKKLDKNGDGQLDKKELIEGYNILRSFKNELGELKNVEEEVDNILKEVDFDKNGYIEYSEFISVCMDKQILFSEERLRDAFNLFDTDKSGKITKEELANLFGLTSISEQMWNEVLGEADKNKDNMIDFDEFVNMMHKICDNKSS

SMILES	IC50 [1] [µM]	IC50 [2] [µM]	IC50 [3] [µM]	IC50 [4] [µM]	IC50 [5] [µM]	IC50 (Proline--tRNA ligase) [µM]	IC50 (Lysine--tRNA ligase) [µM]
O=C(NC1CCCCC1)C(c1cccs1)N(CCc1ccccc1)C(=O)c1ccco1 (configuration not stated)	> 1	> 1	> 1	> 1	> 1	> 2.5	> 2.5
c1ccc2c(NCCCCCCNc3c4c(nc5ccccc35)CCCC4)c3c(nc2c1)CCCC3	> 1	> 1	> 1	> 1	> 1	> 2.5	> 2.5
Nc1ccc(-c2nc3cc(Cc4ccc5[nH]c(-c6ccc(N)cc6)nc5c4)ccc3[nH]2)cc1	> 1	> 1	> 1	> 1	> 1	> 2.5	> 2.5
CCCCOC(=O)c1ccc(Nc2cc(C)nc3ccc(OC)cc23)cc1	> 1	> 1	> 1	> 1	> 1	> 2.5	> 2.5
COc1ccc(C2NCCc3c2[nH]c2ccccc32)cc1CN1CCN(c2ccc(F)cc2)CC1 (configuration not stated)	> 1	> 1	> 1	> 1	> 1	> 2.5	> 2.5
CCOc1ccc(-n2cc(-c3ccccc3)c3c(SCc4cc(C)ccc4C)ncnc32)cc1	> 1	> 1	> 1	> 1	> 1	> 2.5	> 2.5
Cc1ccc(C)c(Cn2c(N3CCC(C(=O)NCc4cccs4)CC3)nc3ccccc32)c1	> 1	> 1	> 1	> 1	> 1	> 2.5	> 2.5
Cc1ccccc1OCCSc1nc2ccc(NC(=O)c3cccs3)cc2s1	> 1	> 1	> 1	> 1	> 1	> 2.5	> 2.5
COc1ccc(C2C(C(=O)Nc3cccc(OC)c3)c3ccccc3C(=O)N2C2CCCCC2)cc1 (configuration not stated)	> 1	> 1	> 1	> 1	> 1	> 2.5	> 2.5
c1ccc2c(NCCc3c[nH]c4ccccc34)c3ccccc3nc2c1	> 1	> 1	> 1	> 1	> 1	> 2.5	> 2.5
CCN(CC)CCCNc1ccnc2cc3ccccc3cc12	> 1	> 1	> 1	> 1	> 1	> 2.5	> 2.5
O=C(Nc1ccc(-c2nc3cc4ccccc4cc3[nH]2)cc1)c1cccc(Br)c1	> 1	> 1	> 1	> 1	> 1	> 2.5	> 2.5
COc1ccc(C(O)(CCC(C)C)C(CN2CCOCC2)c2ccc(Cl)cc2)cc1 (configuration not stated)	> 1	> 1	> 1	> 1	> 1	> 2.5	> 2.5
CCCOCc1cc(CN2CCN(c3cccc(Cl)c3)CC2)c(O)c2ncccc12	> 1	> 1	> 1	> 1	> 1	> 2.5	> 2.5
COc1ccc(C(=O)NC(c2ccccc2Cl)c2cc(Cl)c3cccnc3c2O)cc1 (configuration not stated)	> 1	> 1	> 1	> 1	> 1	> 2.5	> 2.5
CCCc1c(C)nc2ccc(Br)cc2c1O	> 1	> 1	> 1	> 1	> 1	> 2.5	> 2.5
CCCCCCC(O)(c1ccc(F)cc1)C(CN1CCOCC1)c1ccccc1 (configuration not stated)	> 1	> 1	> 1	> 1	> 1	> 2.5	> 2.5
COc1cc(OC)cc(N2C(=O)N(Cc3ccc(C(C)(C)C)cc3)c3ccccc3S2(=O)=O)c1	> 1	> 1	> 1	> 1	> 1	> 2.5	> 2.5
CCOc1c(Br)cc(C2C(C(=O)OC)=CN(C)C=C2C(=O)OC)cc1OC	> 1	> 1	> 1	> 1	> 1	> 2.5	> 2.5
COc1ccccc1N1C(=N)SC(=Cc2ccc(OCc3ccccc3F)cc2)C1=O	> 1	> 1	> 1	> 1	> 1	> 2.5	> 2.5
CCOC(=O)c1c[nH]c2c(CC)cccc2c1=O	> 1	> 1	> 1	> 1	> 1	> 2.5	> 2.5
